Assay results from ChEMBL document CHEMBL1201862, “PubChem BioAssay data set” (2004).
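Values below derive from 48-hour exposures of cells grown in 96-well plates, with endpoints linearly interpolated between the two concentrations bracketing the appropriate inhibition level. GI50 marks 50% less growth.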 Activity calls are given as the source filed them. Cut-off read from the data, not from the text of the source: active = GI50 up to about 1.1 µM and inactive = higher.

How the values were obtained:
Test in all cases: DTP human tumour cell line panel, 48 h
[1] = test system: 786-0
[2] = test system: ACHN
[3] = test system: CAKI-1
[4] = test system: CCRF-CEM
[5] = test system: COLO 205
[6] = test system: DU-145
[7] = test system: EKVX
[8] = test system: HCC 2998
[9] = test system: HCT-116
[10] = test system: HCT-15
[11] = test system: HL-60
[12] = test system: HOP-62
[13] = test system: HOP-92
[14] = test system: HT-29
[15] = test system: Hs-578T
[16] = test system: IGROV-1
[17] = test system: K562
[18] = test system: KM12
[19] = test system: LOX IMVI
[20] = test system: M14
[21] = test system: MCF7
[22] = test system: MDA-MB-231
[23] = test system: MDA-MB-435
[24] = test system: MDA-N
[25] = test system: MOLT-4
[26] = test system: Malme-3M
[27] = test system: NCI-H226
[28] = test system: NCI-H23
[29] = test system: NCI-H460
[30] = test system: NCI-H522
[31] = test system: NCI/ADR-RES
[32] = test system: OVCAR-3
[33] = test system: OVCAR-4
[34] = test system: OVCAR-5
[35] = test system: OVCAR-8
[36] = test system: PC-3
[37] = test system: RPMI-8226
[38] = test system: RXF 393
[39] = test system: SF-268
[40] = test system: SF-295
[41] = test system: SF-539
[42] = test system: SK-MEL-28
[43] = test system: SK-MEL-5
[44] = test system: SK-OV-3
[45] = test system: SN12C
[46] = test system: SNB-19
[47] = test system: SR
[48] = test system: SW-620
[49] = test system: T47D
[50] = test system: TK-10
[51] = test system: U-251
[52] = test system: UACC-257
[53] = test system: UACC-62
[54] = test system: A498
[55] = test system: A549
[56] = test system: SK-MEL-2
[57] = test system: SNB-75
[58] = test system: UO-31
[59] = test system: BT-549

`C/C=C(/C)C(=O)O[C@H]1C[C@@H]2[C@@H](O)c3occ(C)c3C[C@]2(C)[C@@H](C)C1` was tested, and the GI50 [1] was 16.1 µM (inactive), the GI50 [2] was 17.1 µM (inactive) and the GI50 [3] was 18.3 µM (inactive). The GI50 [4] was 18.4 µM (inactive), the GI50 [5] was 16.2 µM (inactive) and the GI50 [6] was 14.8 µM (inactive). The GI50 [7] was 15.8 µM (inactive), the GI50 [8] was 16.6 µM (inactive) and the GI50 [9] was 15.2 µM (inactive). For the same compound, the GI50 [10] was 18.7 µM, the GI50 [11] was 9.93 µM (inactive) and the GI50 [12] was 17.4 µM (inactive). The GI50 [13] was 17.4 µM (inactive), the GI50 [14] was 15.6 µM (inactive) and the GI50 [15] was 28.8 µM (inactive). The GI50 [16] was 16.7 µM (inactive), the GI50 [17] was 10.4 µM (inactive) and the GI50 [18] was 16.3 µM (inactive). The GI50 [19] was 17.5 µM (inactive), the GI50 [20] was 15.6 µM (inactive) and the GI50 [21] was 20.9 µM (inactive). For the same compound, the GI50 [22] was 15.5 µM (inactive), the GI50 [23] was 16.5 µM (inactive) and the GI50 [24] was 18.7 µM (inactive). For the same compound, the GI50 [25] was 15.2 µM (inactive), the GI50 [26] was 15.8 µM (inactive) and the GI50 [27] was 14.2 µM (inactive). The GI50 [28] was 17.8 µM (inactive), the GI50 [29] was 22.4 µM (inactive) and the GI50 [30] was 14.6 µM (inactive). For the same compound, the GI50 [31] was 14.2 µM (inactive), the GI50 [32] was 17.1 µM (inactive) and the GI50 [33] was 18 µM (inactive). The GI50 [34] was 19.6 µM (inactive), the GI50 [35] was 19.2 µM (inactive) and the GI50 [36] was 14.4 µM (inactive). For the same compound, the GI50 [37] was 25.6 µM (inactive), the GI50 [38] was 14.4 µM (inactive) and the GI50 [39] was 16 µM (inactive). The GI50 [40] was 15.2 µM (inactive), the GI50 [41] was 17.5 µM (inactive) and the GI50 [42] was 16.3 µM (inactive). The GI50 [43] was 10.4 µM (inactive), the GI50 [44] was 17.1 µM (inactive) and the GI50 [45] was 14.1 µM (inactive). The GI50 [46] was 16.8 µM (inactive), the GI50 [47] was 14.2 µM (inactive) and the GI50 [48] was 16.2 µM (inactive). The GI50 [49] was 11.6 µM (inactive), the GI50 [50] was 17.6 µM (inactive) and the GI50 [51] was 14.8 µM (inactive). The GI50 [52] was 11.1 µM (inactive) and the GI50 [53] was 13.4 µM (inactive).

For `Nc1nc(N)c2c(CCc3ccc(C(=O)N[C@@H](CCC(=O)O)C(=O)O)cc3)ccnc2n1`, the GI50 [54] was 0.541 µM (active), the GI50 [55] was 0.0731 µM (active) and the GI50 [2] was < 0.0236 µM (active). For the same compound, the GI50 [3] was < 0.0116 µM (active), the GI50 [5] was 1.27 µM (inactive) and the GI50 [6] was 0.055 µM (active). For the same compound, the GI50 [7] was > 100 µM (inactive), the GI50 [8] was < 0.01 µM (active) and the GI50 [9] was < 0.01 µM (active). The GI50 [10] was less than 0.0232 µM, the GI50 [11] was < 0.01 µM (active) and the GI50 [13] was 1.21 µM (inactive). The GI50 [14] was < 0.0294 µM (active), the GI50 [15] was 52 µM (inactive) and the GI50 [16] was 0.029 µM (active). The GI50 [17] was < 0.01 µM (active), the GI50 [18] was < 0.0283 µM (active) and the GI50 [19] was < 0.01 µM (active). The GI50 [20] was < 0.0218 µM (active), the GI50 [21] was < 0.01 µM (active) and the GI50 [22] was > 100 µM (inactive). For the same compound, the GI50 [23] was < 0.01 µM (active), the GI50 [24] was < 0.0129 µM (active) and the GI50 [25] was < 0.05 µM (active). For the same compound, the GI50 [27] was > 100 µM (inactive), the GI50 [28] was < 0.0308 µM (active) and the GI50 [29] was < 0.01 µM (active). The GI50 [30] was 0.0855 µM (active), the GI50 [31] was < 0.0211 µM (active) and the GI50 [32] was 0.0365 µM (active). The GI50 [35] was < 0.01 µM (active), the GI50 [36] was 17.7 µM (inactive) and the GI50 [37] was < 0.0145 µM (active). The GI50 [38] was 0.0465 µM (active), the GI50 [39] was 0.0308 µM (active) and the GI50 [40] was 0.148 µM (active). The GI50 [41] was < 0.0145 µM (active), the GI50 [42] was > 88.9 µM (inactive) and the GI50 [56] was > 28.8 µM (inactive). For the same compound, the GI50 [43] was 0.0855 µM (active), the GI50 [44] was 0.0628 µM (active) and the GI50 [45] was < 0.0297 µM (active). For the same compound, the GI50 [46] was 0.912 µM (active), the GI50 [57] was 0.323 µM (active) and the GI50 [49] was 75.5 µM (inactive). The GI50 [50] was 0.0363 µM (active), the GI50 [52] was 0.257 µM (active) and the GI50 [53] was < 0.0169 µM (active). The GI50 [58] was 0.0164 µM (active).

For `CC(C(=O)N1C(=O)N(C(=O)[C@H](C)C(O)c2ccccc2)[C@H](c2ccccc2)[C@H]1c1ccccc1)[C@@H](O)c1ccccc1` (some centres not stated), the GI50 [1] was 29.2 µM (inactive), the GI50 [54] was 24.3 µM (inactive) and the GI50 [55] was 33 µM (inactive). For the same compound, the GI50 [2] was 30.5 µM (inactive), the GI50 [59] was 6.04 µM (inactive) and the GI50 [3] was 20 µM (inactive). The GI50 [5] was 18.7 µM (inactive), the GI50 [6] was 50.5 µM (inactive) and the GI50 [7] was 21.1 µM (inactive). For the same compound, the GI50 [8] was 36.7 µM (inactive), the GI50 [9] was 34.2 µM (inactive) and the GI50 [10] was 45.7 µM. For the same compound, the GI50 [11] was 22 µM (inactive), the GI50 [12] was 37.1 µM (inactive) and the GI50 [13] was 25.6 µM (inactive). The GI50 [14] was 36.6 µM (inactive), the GI50 [16] was 12 µM (inactive) and the GI50 [17] was 17.5 µM (inactive). The GI50 [18] was 31.2 µM (inactive), the GI50 [20] was 28.5 µM (inactive) and the GI50 [21] was 26.6 µM (inactive). The GI50 [22] was 19.5 µM (inactive), the GI50 [23] was 26.2 µM (inactive) and the GI50 [24] was 20 µM (inactive). For the same compound, the GI50 [27] was 27 µM (inactive), the GI50 [28] was 44.4 µM (inactive) and the GI50 [29] was 22.4 µM (inactive). For the same compound, the GI50 [30] was 30.3 µM (inactive), the GI50 [33] was 26.5 µM (inactive) and the GI50 [34] was 25.2 µM (inactive). For the same compound, the GI50 [35] was 25.1 µM (inactive), the GI50 [36] was 9.79 µM (inactive) and the GI50 [39] was 38.2 µM (inactive). For the same compound, the GI50 [40] was 29.2 µM (inactive), the GI50 [41] was 22.2 µM (inactive) and the GI50 [42] was > 100 µM (inactive). For the same compound, the GI50 [56] was 16.9 µM (inactive), the GI50 [43] was 14.9 µM (inactive) and the GI50 [44] was 83.6 µM (inactive). For the same compound, the GI50 [45] was 38.8 µM (inactive), the GI50 [46] was 37.2 µM (inactive) and the GI50 [57] was 28 µM (inactive). For the same compound, the GI50 [47] was 0.118 µM (active), the GI50 [48] was 45.2 µM (inactive) and the GI50 [49] was 68.9 µM (inactive). For the same compound, the GI50 [50] was 41.2 µM (inactive), the GI50 [51] was 35.9 µM (inactive) and the GI50 [52] was 28.4 µM (inactive). For the same compound, the GI50 [53] was 14.6 µM (inactive) and the GI50 [58] was 31.5 µM (inactive).
